These results are taken from patent US5756666A, “Peptides capable of inducing immune response to HIV” (priority 1993, dated 1998).

Ends that are not written are not given here.

The test system of the data set is T2-B * 3501 cells.

As for TPPLVKLWY [HIV(B35)-16], the “induction of CTL with specific cytotoxic activity” value is on record as “effective for inducing CTLs capable of damaging the synthetic peptide-binding T2-B * 3501 cells”.
